Assay results: patent US5993860A, “NSADI delivery employing a powdered hydrocolloid gum obtainable from higher plants” (Venture Lending, priority 1997, dated 1999)
Several values for one entry are separate records, joined by “and”; a condition that tells them apart may be missing. Identical values can stand only once.

Legend:
[1] = ketoprofen-induced gastric damage in rats; format: in vivo, rat (male Wistar); settings: ketoprofen 100 mg/kg oral; 5 h after dosing; 15 rats
Protocol: In this example a dose of ketoprofen (100 mg/kg) was administered to rats to induce gastric damage and guar gum was coadministered to determine its effect. Both the ketoprofen and guar gum were administered as an aqueous mixture.
Seventy-five male Wistar rats each approximately 6 weeks of age and ranging in weight from 206 g to 233 g were housed 5 to a cage in suspended polypropylene cages with wire grid floors. The rats had access to tap water and were fed a standard certified laboratory rodent diet (RM1(E)SQC), ad libitam. Lighting in the animal room was controlled to give 12 hours light (0700-1900 hours) and 12 hours dark each day. The room temperature and relative humidity controls were set at 21° C.±3° C. and 50% ±15% respectively.
After an acclimatization period of 3 days following the day of arrival, the animals were randomized into groups according to bodyweight using random numbers tables so that the group mean bodyweights were approximately equal. Including the day of randomization, there were a further 3 days of acclimatization prior to dosing. […]
Five hours after dosing, the rats were sacrificed by carbon dioxide asphyxiation and the stomachs removed. Each stomach was opened along the greater curvature and examined macroscopically for damage in the glandular portion; any damage was subjectively scored using the following system: […]

[2] = aspirin-induced gastric ulcer model in rats (ulcer severity grade); format: in vivo, rat (Sprague-Dawley male)
Protocol: Tests were conducted in the aspirin-induced gastric ulcer model. Rats were dosed as indicated below. Five hours after dosing, rats were sacrificed and stomachs were examined for the presence of gastric lesions. A total of 6 treatments were tested. Each treatment was tested in 12 rats. The treatments were prepared immediately prior to use. The aspirin treatments were prepared by suspending 2.00 grams of fine mesh aspirin in 100 ml water (plus 0.1% Tween 80) and then adding the specified amount (i.e. 0, 0.10, 1.00, or 5.00 grams) of Guar gum. The Guar gum 5.0% alone treatment was prepared as above except the aspirin was omitted. All dosing preparations were warmed to about 100° C.; uniformity of suspensions was ensured by constant stirring. Sprague-Dawley male rats, 148 to 190 grams, were individually-housed under standard Vivarium conditions. After arrival, rats were allowed to acclimate in house for a minimum of 5 days before initiation of testing. Rats were fasted (water ad libitum) for 18 hours prior to testing. Treatments 1-6, assigned to rats in random fashion, were administered orally (gavage) at the rate of 10 ml/kilogram (kg). Five hours after treatment, each rat was sacrificed by carbon dioxide inhalation. The abdomen was opened. The stomach was removed, opened along the greater curvature, examined for the presence of lesions, and assigned a severity grade according to the following scale: 0 No lesions 1<5 lesions, at least 1 lesion<2 mm 2<5 lesions, at least 1 lesion>2 mm 3 5 to 10 lesions, all<2 mm 4 5 to 10 lesions, at least 1 lesion>2 mm 5 >10 lesions, all<2 mm 6 >10 lesions, at least 1 lesion>2 mm In order to eliminate bias and reduce subjective variation, all ulcer grading in the study was performed in single-blind fashion by the same well-experienced grader. For each stomach, the severity score was recorded. Data are expressed using the absolute values. […] Statistical significance of differences between means were determined by analysis of variance followed by Neumann-Kuels multiple comparisons test.

| SMILES | Group mean score for gastric damage [1] | Ulcer Grade, mean ([2]; Table 5, severity scale 0-6, 5 h after oral gavage, 10 ml/kg, 12 rats) | stomachs with ulcer severity scores of 5 or greater ([2]; number of rats of 12) | mean ulcer severity (mean ± s.e.m.) ([2]; severity scale 0-6, 5 h after dosing) |
| --- | --- | --- | --- | --- |
| CC(C(=O)O)c1cccc(C(=O)c2ccccc2)c1 (stereo not shown) [Ketoprofen] | 13.1 |  |  |  |
| CC(=O)Oc1ccccc1C(=O)O [Aspirin, acetylsalicylic acid] |  | 5.8 | 11 of the 12 | 5.8 and 5.75±0.18 |
